Patent US7829589B2, “Sulfonamide compounds and uses thereof” (Elixir Pharmaceuticals, Inc., priority 2005, dated 2010)

Target: GHS-R (Homo sapiens, UniProt Q92847)
Test: GHS-R antagonist activity (Ki) in a cell based assay
Description: Cell-Based Activity Assays. For example, the ability of the compound to modulate accumulation of a second messenger signaling component downstream of GHS-R can be evaluated. For example, inositol phosphates (IP), as a result of Gq signaling in a mammalian cell, e.g., a Cos-7 cells. Other tissue culture cells, Xenopus oocytes, and primary cells can also be used.
Phosphatidylinositol turnover assay. One day after transfection COS-7 cells are incubated for 24 hours with 5 μCi of [^3H]-myo-inositol in 1 ml medium supplemented with 10% fetal calf serum, 2 mM glutamine and 0.01 mg/ml gentamicin per well. Cells are then washed twice in buffer, 20 mM HEPES, pH 7.4, supplemented with 140 mM NaCl, 5 mM KCl, 1 mM MgSO4, 1 mM CaCl2, 10 mM glucose, 0.05% (w/v) bovine serum; and incubated in 0.5 ml buffer supplemented with 10 mM LiCl at 37° C. for 30 min. For some assays, it is also useful to incubate the cells with adenosine deaminase ADA (200 U/mg, Boehringer Mannheim, Germany) for 30 min in a concentration of 1 U/ml.
After incubation with the compound of interest for 45 min at 37° C., cells are extracted with 10% ice-cold perchloric acid and placed on ice for 30 min. The resulting supernatants are neutralized with KOH in HEPES buffer, and [^3H]-inositol phosphate is purified on Bio-Rad AG 1-X8 anion exchange resin as described. Assays can be run in duplicate, triplicate, etc. […]

Chain of GHS-R (Q92847 whole entry, species assumed): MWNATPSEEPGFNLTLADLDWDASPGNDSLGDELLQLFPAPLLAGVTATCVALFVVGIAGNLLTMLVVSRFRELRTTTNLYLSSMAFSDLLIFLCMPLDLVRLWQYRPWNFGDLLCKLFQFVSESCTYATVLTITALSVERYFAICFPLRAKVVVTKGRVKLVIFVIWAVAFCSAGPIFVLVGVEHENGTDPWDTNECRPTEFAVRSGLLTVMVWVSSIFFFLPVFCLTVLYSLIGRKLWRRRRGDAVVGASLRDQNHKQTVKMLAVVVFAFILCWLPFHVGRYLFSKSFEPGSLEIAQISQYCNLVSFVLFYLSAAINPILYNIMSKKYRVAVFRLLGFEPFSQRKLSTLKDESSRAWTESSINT

SMILES | Ki [µM]
CCN(CC)CCCS(=O)(=O)N[C@H](CCc1ccccc1)c1nc(-c2c[nH]c3ccccc23)n[nH]1 [Compound 38, 3-Diethylamino-propane-1-sulfonic acid {(R)-1-[5-(1H-indol-3-yl)-2H-[1,2,4]triazol-3-yl]-3-phenyl-propyl}-amide] | < 0.1
CCN(CC)CCCS(=O)(=O)N[C@H](CCc1ccccc1)c1nc(-c2ccccn2)no1 [Compound 39, 3-Diethylamino-propane-1-sulfonic acid [(R)-3-phenyl-1-(3-pyridin-2-yl-[1,2,4]oxadiazol-5-yl)-propyl]-amide] | 0.5 to 1
CCN(CC)CCCS(=O)(=O)N[C@H](CCc1ccccc1)c1nc(-c2ccc(C#N)cc2)n[nH]1 [Compound 40, 3-Diethylamino-propane-1-sulfonic acid {(R)-1-[5-(4-cyano-phenyl)-2H-[1,2,4]triazol-3-yl]-3-phenyl-propyl}-amide] | < 0.1
CCN(CC)CCCS(=O)(=O)N[C@H](CCc1ccccc1)c1nc(-c2cccnc2)no1 [Compound 41, 3-Diethylamino-propane-1-sulfonic acid [(R)-3-phenyl-1-(3-pyridin-3-yl-[1,2,4]oxadiazol-5-yl)-propyl]-amide] | 0.1 to 0.5
CCN(CC)CCCS(=O)(=O)N[C@H](CCc1ccccc1)c1nc(-c2ccc(C(C)(C)C)cc2)n[nH]1 [Compound 42, 3-Diethylamino-propane-1-sulfonic acid {(R)-1-[5-(4-tert-butyl-phenyl)-2H-[1,2,4]triazol-3-yl]-3-phenyl-propyl}-amide] | ≥ 1
CCN(CC)CCS(=O)(=O)N[C@H](CCc1ccccc1)c1nc(-c2cccnc2)no1 [Compound 43, 2-Diethylamino-ethanesulfonic acid [(R)-3-phenyl-1-(3-pyridin-3-yl-[1,2,4]oxadiazol-5-yl)-propyl]-amide] | 0.1 to 0.5
CCN(CC)CCCS(=O)(=O)N[C@H](CCc1ccccc1)c1nc(-c2ccc3ncsc3c2)n[nH]1 [Compound 44, 3-Diethylamino-propane-1-sulfonic acid [(R)-1-(5-benzothiazol-6-yl-2H-[1,2,4]triazol-3-yl)-3-phenyl-propyl]-amide] | < 0.1
CCN(CC)CCCS(=O)(=O)N[C@H](COCc1ccccc1)c1nc(-c2cccnc2)no1 [Compound 45, 3-Diethylamino-propane-1-sulfonic acid [(R)-2-benzyloxy-1-(3-pyridin-3-yl-[1,2,4]oxadiazol-5-yl)-ethyl]-amide] | ≥ 1
CCN(CC)CCS(=O)(=O)N[C@H](CCc1ccccc1)c1nc(-c2c(OC)cccc2OC)no1 [Compound 46, 2-Diethylamino-ethanesulfonic acid {(R)-1-[3-(2,6-dimethoxy-phenyl)-[1,2,4]oxadiazol-5-yl]-3-phenyl-propyl}-amide] | 0.1 to 0.5
CCN(CC)CCCS(=O)(=O)N[C@H](CCc1ccccc1)c1nc(-c2ccc3c(c2)OCCO3)n[nH]1 [Compound 47, 3-Diethylamino-propane-1-sulfonic acid {(R)-1-[5-(2,3-dihydro-benzo[1,4]dioxin-6-yl)-2H-[1,2,4]triazol-3-yl]-3-phenyl-propyl}-amide] | < 0.1
CCN(CC)CCCS(=O)(=O)N[C@H](CCc1ccccc1)c1nc(-c2ccccc2Cl)no1 [Compound 48, 3-Diethylamino-propane-1-sulfonic acid {(R)-1-[3-(2-chloro-phenyl)-[1,2,4]oxadiazol-5-yl]-3-phenyl-propyl}-amide] | 0.1 to 0.5
CCN(CC)CCS(=O)(=O)N[C@H](COCc1ccccc1)c1nc(-c2ccccc2OC)no1 [Compound 49, 2-Diethylamino-ethanesulfonic acid {(R)-2-benzyloxy-1-[3-(2-methoxy-phenyl)-[1,2,4]oxadiazol-5-yl]-ethyl}-amide] | ≥ 1
CCN(CC)CCCS(=O)(=O)N[C@H](CCc1ccccc1)c1nc(-c2cccc(C#N)c2)n[nH]1 [Compound 50, 3-Diethylamino-propane-1-sulfonic acid {(R)-1-[5-(3-cyano-phenyl)-2H-[1,2,4]triazol-3-yl]-3-phenyl-propyl}-amide] | < 0.1
